One data set relates to HCT116. Briefly: MTT test, antiproliferative activity. The settings on record: for IC50: HCT-116, HCT116 human solid tumor cells, MTT test. It is filed as cell-based, human. As for the experimental part:
(§1) Comparative study of cytotoxicity of 6,7-difluoro-3-phenyl-2-cyanoquinoxaline 1,4-dioxide (compound 7 obtained according to a method described in the Example 1) and the previously known 6,7-nonsubstituted analogue 6 (obtained earlier by a method described by [Hu Y. etal. Molecules 2012, 17, 9683]) was performed in in vitro tests on cells of human solid tumors, as well as normal human embryo lung fibroblasts (HELF) to control selectivity. IC50 values were determined by the MTT test according to a protocol described in the literature [Mossman T.J. Immunol. Methods, 1983, 65, 55]. Table 1. Antiproliferative activity (IC50, µM) of quinoxaline 1,4-dioxides 6 and 7 with respect to human solid tumor cells and non-tumor human embryo lung fibroblasts (HELF)

Another data set has as its system MSF7. Description: MTT test, antiproliferative activity. It counts as cell-based. As to conditions: MSF7 human solid tumor cells. As for the experimental part: as §1
In general terms: Tetrazolium dyes change colour on reduction, which living cells bring about.

The test system of another data set is K562 leukemic cells. Description: Antiproliferative activity on leukemia cells. It counts as cell-based. As to conditions: Homo sapiens. As for the experimental part:
(§2) Comparative study of cytotoxicity of 6,7-difluoro-3-phenyl-2-cyanoquinoxaline 1,4-dioxide (compound of formula 7), which is the subject if the present invention, was performed also on a culture of tumor […] leukemia K562 cells and its resistant subline K562/4 expressing p-glycoprotein. Expression of such ATP-dependent transporters on cell surface is one of the most common mechanisms of the multidrug resistance development in tumors [Shtil A.A., Grinchuk T.M., et. al. Int. J. Oncol., 2000, 17, 387]. Data of these studies, including the IC50 values of reference compounds, the previously described quinoxaline 1,4-dioxide of formula 6, and doxorubicin, as well as the resistance index value (RI is the ratio between the IC50 values of the K562/4 subline and IC50 of the K562 line) are presented in Table 2.

The test system of data set [1] is normal human embryo lung fibroblasts (HELF). Description: MTT test, cytotoxicity on non-tumor cells (selectivity control). It is filed as cell-based. The settings on record: HELF; non-tumor human embryo lung fibroblasts, MTT test; read-out: IC50, µM HEFL. As for the experimental part: as §1
For another data set, the system named is K562/4. Description: Antiproliferative activity on multidrug-resistant subline expressing p-glycoprotein. It counts as cell-based. As to conditions: for IC50: Homo sapiens, K562/4 subline with multidrug resistance caused by p-gp expression; for RI, resistance index: RI = IC50(K562/4)/IC50(K562). As for the experimental part: as §2
The nature of data set [2]: MTT test, cytotoxicity on non-tumor cells (selectivity control). It is filed as cell-based. As to conditions: tumor cells of different genesis vs non-tumor human fibroblasts; read-out: cytotoxicity with respect to tumor cells higher than against the non-tumor human fibroblast cells (selectivity). As for the experimental part:
as §1

Data set [3] has as its system human tumor cells of various genesis. Description: Apoptosis induction in tumor cells under normoxia. It is filed as cell-based. The settings on record: submicromolar concentrations, all studied types of human tumor cells.
The test system of another data set is animal tumor models. Description: Antitumor effect on animal tumor models. It counts as in vivo. As to conditions: no data given.

Experimental findings from EP3138565A1, “METHOD FOR TREATING A TUMOUR DISEASE AND METHOD FOR SELECTIVELY INHIBITING TUMOUR CELL GROWTH USING A QUINOXALINE-1,4-DIOXIDE DERIVATIVE” (OOO "A-Laboratory", priority 2014, dated 2015) are described below.

Regarding `N#Cc1c(-c2ccccc2)[n+]([O-])c2ccccc2[n+]1[O-]` [Compound 6, reference compound], the half-maximal inhibitory concentration (IC50) stood at 8.4 ± 0.8 µM with HCT116; 15.5 ± 0.98 µM in the data set with MSF7; 5.2 ± 0.78 µM in the data set with K562 leukemic cells; 25.2 ± 5.1 µM in data set [1]; 33 ± 4 µM with K562/4. The “RI, resistance index” value with K562/4 is recorded as 6.3.

For the molecule `N#Cc1c(-c2ccccc2)[n+]([O-])c2cc(F)c(F)cc2[n+]1[O-]` [Compound 7, 6,7-difluoro-3-phenyl-2-cyanoquinoxaline 1,4-dioxide], the IC50 in the data set with HCT116 stood at 0.6 ± 0.03 µM; in the data set with MSF7, 0.1 ± 0.02 µM; in the data set on K562 leukemic cells, 0.15 ± 0.02 µM; in data set [1] it was 44 ± 1.9 µM; in the data set on K562/4, 0.3 ± 0.05 µM. In addition, the “growth-inhibiting concentrations relative to the closest analogue of formula 6” value in the data set on HCT116 (all tested tumor cell lines) is “two orders of magnitude lower”. Further, in data set [2], the selectivity ratio was 200 to 300. Besides, the “activity toward K562/4 cells surpassing analogue of formula 6” value in the data set with K562/4 (K562/4, versus closest analogue of formula 6) came out at 100 fold. For the same molecule, the “activity toward K562/4 cells surpassing doxorubicin” value with K562/4 (K562/4, versus reference preparation doxorubicin) was ~50 fold. Further, the “RI, resistance index” value with K562/4 was determined as 2.0. In the data set on K562/4 (RI of compound versus RI of doxorubicin), the “resistance index (RI) lower than doxorubicin” value is listed as ~50 fold. Besides, the apoptosis induction result in data set [3] was “induced apoptosis”. For the same molecule, the antitumor effect entry with animal tumor models is recorded as “reliable antitumor effect”.

With `COc1cccc2c1C(=O)c1c(O)c3c(c(O)c1C2=O)C[C@@](O)(C(=O)CO)C[C@@H]3O[C@H]1C[C@H](N)[C@H](O)[C@H](C)O1` [Doxorubicin, reference compound], the IC50 with K562 leukemic cells stood at 0.18 ± 0.03 µM. Also, in the data set with K562/4, the IC50 was 18.4 ± 2.2 µM and the “RI, resistance index” value is 102.2.

As usually defined, the IC50 is the midpoint of a concentration-inhibition curve.
